Results on two molecules are retold here after ChEMBL document CHEMBL2331425, “Triazolo and imidazo dihydropyrazolopyrimidine potassium channel antagonists” (Bioorg Med Chem Lett, 2013).

Data set [1] addresses Potassium voltage-gated channel subfamily A member 5 (Homo sapiens, UniProt P22460). As to the kind of experiment: Antagonist activity at human Kv1.5 expressed in mouse L929 cells assessed as inhibition of delayed rectifier repolarization current by patch clamp assay. Format: cell-based. (In patch-clamp work, channel activity is measured electrically.)
The target in data set [2] is Voltage-gated inwardly rectifying potassium channel KCNH2 (Homo sapiens, UniProt Q12809). The experiment in a line: Inhibition of human ERG current in HEK293 cells by patch clamp method. Format: cell-based.
In another data set the target is Cytochrome P450 2C9 (Homo sapiens, UniProt P11712). The experiment in a line: Inhibition of CYP2C9 (unknown origin). Type of data set: ADME.
In the next data set the target is Cytochrome P450 2D6 (Homo sapiens, UniProt P10635). As to the kind of experiment: Inhibition of CYP2D6 (unknown origin). Format: ADME.
Another data set deals with Cytochrome P450 3A4 (Homo sapiens, UniProt P08684). The experiment in a line: Inhibition of CYP3A4 (unknown origin). Type of data set: ADME.
The target in another data set is T1, Cytochrome P450 1A2 (Homo sapiens, UniProt P05177).
T1 sequence (P05177 whole entry): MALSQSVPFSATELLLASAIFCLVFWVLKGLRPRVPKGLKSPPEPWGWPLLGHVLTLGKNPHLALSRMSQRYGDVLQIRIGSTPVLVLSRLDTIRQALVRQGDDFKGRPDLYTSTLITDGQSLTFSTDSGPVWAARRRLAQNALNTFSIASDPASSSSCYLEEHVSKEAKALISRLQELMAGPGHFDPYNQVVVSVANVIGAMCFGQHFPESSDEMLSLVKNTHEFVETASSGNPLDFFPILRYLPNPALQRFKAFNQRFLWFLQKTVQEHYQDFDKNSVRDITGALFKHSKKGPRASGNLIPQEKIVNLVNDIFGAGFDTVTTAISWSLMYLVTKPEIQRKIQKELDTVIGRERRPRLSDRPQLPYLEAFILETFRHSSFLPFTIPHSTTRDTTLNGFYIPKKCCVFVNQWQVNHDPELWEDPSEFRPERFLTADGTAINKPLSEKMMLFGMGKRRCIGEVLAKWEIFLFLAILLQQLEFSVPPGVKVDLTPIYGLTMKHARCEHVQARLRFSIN
As to the kind of experiment: Inhibition of CYP1A2 (unknown origin). Type of data set: ADME.

The target of data set [3] is T2, Nuclear receptor subfamily 1 group I member 2 (Homo sapiens, UniProt O75469).
T2 sequence (O75469 whole entry): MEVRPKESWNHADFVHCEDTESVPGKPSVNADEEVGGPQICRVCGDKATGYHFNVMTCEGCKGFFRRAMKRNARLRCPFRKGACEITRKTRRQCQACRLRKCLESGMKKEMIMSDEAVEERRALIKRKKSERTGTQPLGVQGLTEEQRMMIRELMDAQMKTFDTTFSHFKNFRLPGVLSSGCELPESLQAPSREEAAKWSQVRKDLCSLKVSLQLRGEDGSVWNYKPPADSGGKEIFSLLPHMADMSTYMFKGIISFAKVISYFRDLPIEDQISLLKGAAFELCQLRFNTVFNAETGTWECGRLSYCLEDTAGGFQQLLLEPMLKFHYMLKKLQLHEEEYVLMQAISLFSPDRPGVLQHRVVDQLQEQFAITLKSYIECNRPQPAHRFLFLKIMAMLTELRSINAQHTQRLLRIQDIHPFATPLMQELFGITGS
As to the kind of experiment: Transactivation of PXR (unknown origin).

The target of the next data set is Cytochrome P450 2C19 (Homo sapiens, UniProt P33261). The experiment in a line: Inhibition of CYP2C19 (unknown origin). Type of data set: ADME.
Chain of Cytochrome P450 2C19 (P33261 whole entry): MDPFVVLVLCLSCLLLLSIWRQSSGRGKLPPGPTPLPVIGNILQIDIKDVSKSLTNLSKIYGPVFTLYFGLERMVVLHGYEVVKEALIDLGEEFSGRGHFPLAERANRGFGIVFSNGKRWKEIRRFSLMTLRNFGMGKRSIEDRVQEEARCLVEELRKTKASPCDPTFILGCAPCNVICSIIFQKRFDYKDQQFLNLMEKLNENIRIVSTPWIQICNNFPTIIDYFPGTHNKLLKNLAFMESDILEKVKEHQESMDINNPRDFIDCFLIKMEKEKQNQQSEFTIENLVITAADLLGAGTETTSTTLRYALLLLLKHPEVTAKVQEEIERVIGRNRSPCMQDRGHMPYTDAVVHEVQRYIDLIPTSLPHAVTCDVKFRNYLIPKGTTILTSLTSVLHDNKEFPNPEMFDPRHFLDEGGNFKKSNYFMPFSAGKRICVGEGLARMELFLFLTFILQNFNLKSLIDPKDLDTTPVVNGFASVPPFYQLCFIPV

Chain of Potassium voltage-gated channel subfamily A member 5 (P22460 whole entry): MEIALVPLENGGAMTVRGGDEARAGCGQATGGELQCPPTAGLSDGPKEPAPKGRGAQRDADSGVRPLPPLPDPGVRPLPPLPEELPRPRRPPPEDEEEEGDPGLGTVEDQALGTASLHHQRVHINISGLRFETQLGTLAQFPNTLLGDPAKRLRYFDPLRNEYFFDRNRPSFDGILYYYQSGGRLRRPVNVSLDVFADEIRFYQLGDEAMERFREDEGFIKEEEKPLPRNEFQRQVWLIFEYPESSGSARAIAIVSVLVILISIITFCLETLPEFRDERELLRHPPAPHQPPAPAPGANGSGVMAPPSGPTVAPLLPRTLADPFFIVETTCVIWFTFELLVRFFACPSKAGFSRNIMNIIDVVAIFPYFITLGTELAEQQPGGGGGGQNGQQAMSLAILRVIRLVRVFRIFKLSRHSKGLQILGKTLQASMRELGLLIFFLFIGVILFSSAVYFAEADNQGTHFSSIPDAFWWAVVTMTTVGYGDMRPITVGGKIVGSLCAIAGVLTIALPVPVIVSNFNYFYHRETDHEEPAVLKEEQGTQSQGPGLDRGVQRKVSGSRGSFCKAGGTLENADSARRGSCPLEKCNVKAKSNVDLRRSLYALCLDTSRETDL
Chain of Cytochrome P450 2C9 (P11712 whole entry): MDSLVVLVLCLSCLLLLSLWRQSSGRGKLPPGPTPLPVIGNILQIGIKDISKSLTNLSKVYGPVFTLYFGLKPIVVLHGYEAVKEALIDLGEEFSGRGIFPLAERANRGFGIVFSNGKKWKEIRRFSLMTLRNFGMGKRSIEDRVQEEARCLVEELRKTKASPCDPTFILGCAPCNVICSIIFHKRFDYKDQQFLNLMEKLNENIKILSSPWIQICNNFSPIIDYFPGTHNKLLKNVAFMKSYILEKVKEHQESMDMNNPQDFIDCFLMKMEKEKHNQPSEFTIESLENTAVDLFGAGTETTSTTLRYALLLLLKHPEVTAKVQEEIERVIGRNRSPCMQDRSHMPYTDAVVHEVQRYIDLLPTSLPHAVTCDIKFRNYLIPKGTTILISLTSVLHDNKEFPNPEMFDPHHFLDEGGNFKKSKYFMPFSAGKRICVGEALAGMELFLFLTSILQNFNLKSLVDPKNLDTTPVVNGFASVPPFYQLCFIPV
Chain of Cytochrome P450 3A4 (P08684 whole entry): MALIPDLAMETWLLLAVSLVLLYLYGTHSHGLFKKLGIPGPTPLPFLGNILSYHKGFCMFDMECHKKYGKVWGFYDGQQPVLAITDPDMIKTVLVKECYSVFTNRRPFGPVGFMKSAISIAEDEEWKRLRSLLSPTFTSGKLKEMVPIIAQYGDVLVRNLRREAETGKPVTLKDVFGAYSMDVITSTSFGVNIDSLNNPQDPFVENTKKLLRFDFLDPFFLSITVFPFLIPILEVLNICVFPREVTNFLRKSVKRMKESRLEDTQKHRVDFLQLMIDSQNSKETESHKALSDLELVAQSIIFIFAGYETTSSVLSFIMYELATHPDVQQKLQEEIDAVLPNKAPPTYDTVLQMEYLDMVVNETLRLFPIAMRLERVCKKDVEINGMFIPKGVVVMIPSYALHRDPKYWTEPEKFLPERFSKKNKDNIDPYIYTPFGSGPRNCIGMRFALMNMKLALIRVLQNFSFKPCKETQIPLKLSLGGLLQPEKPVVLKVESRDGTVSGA
Chain of Voltage-gated inwardly rectifying potassium channel KCNH2 (Q12809 whole entry): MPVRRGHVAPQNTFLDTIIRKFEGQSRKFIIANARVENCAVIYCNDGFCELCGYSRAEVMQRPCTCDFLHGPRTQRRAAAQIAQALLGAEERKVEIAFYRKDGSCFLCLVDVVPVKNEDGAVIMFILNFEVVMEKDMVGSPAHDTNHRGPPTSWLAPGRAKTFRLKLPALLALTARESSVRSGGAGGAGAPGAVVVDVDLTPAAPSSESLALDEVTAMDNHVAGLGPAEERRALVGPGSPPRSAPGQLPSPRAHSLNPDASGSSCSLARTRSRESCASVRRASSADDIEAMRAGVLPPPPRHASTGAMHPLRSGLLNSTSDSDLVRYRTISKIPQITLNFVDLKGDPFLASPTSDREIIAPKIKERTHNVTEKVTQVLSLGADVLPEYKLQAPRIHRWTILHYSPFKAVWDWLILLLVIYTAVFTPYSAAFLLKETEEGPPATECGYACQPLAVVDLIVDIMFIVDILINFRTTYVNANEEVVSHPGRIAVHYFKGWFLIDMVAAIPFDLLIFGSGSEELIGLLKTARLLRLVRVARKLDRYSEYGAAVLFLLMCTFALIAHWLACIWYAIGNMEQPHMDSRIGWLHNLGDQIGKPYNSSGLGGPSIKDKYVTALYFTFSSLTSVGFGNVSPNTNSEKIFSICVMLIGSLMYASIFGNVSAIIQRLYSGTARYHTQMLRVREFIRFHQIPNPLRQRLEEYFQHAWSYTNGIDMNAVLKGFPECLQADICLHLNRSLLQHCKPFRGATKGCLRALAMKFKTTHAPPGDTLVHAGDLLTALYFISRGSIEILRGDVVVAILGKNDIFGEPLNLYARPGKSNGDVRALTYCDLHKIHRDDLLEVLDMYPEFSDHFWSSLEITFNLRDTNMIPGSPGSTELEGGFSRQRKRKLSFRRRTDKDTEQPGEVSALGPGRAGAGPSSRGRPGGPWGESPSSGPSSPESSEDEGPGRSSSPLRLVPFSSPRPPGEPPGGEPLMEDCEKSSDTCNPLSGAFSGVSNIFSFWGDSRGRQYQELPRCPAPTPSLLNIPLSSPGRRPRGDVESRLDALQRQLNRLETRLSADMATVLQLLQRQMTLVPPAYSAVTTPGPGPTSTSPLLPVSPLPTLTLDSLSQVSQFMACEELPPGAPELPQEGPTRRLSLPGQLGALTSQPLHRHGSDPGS
Chain of Cytochrome P450 2D6 (P10635 whole entry): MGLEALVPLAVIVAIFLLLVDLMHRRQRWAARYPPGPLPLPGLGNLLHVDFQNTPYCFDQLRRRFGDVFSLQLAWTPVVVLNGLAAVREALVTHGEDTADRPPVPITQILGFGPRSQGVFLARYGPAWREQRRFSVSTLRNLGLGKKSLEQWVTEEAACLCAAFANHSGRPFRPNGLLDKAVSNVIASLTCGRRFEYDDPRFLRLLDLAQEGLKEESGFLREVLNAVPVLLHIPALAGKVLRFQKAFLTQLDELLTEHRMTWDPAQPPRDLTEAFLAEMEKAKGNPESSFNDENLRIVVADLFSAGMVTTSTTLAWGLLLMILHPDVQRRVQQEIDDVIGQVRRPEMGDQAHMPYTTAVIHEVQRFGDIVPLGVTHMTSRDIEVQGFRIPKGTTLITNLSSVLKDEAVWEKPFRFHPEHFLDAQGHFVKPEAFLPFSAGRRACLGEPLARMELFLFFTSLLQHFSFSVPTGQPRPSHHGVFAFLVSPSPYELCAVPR

The term IC50 denotes the concentration that inhibits the measured activity by half. Regarding `CC1=C(c2ncnn2C2CCCC2)[C@@H](c2ccc(Cl)c(Cl)c2)n2nccc2N1`, the half-maximal inhibitory concentration (IC50) in data set [1] was 37 nM. Further, the INH in data set [2] is 6 µM.

As usually defined, the EC20 is the concentration at which the effect reaches the 20% level. Read a high EC20 as weaker potency. In the case of `CC1=C(c2ncnn2C2CCC(C(F)(F)F)CC2)[C@@H](c2ccc(Cl)c(Cl)c2)n2nc(C(F)(F)F)cc2N1` (single isomer, unassigned; isomer 2), the IC50 in data set [1] is 607 nM. Further, the INH was 8 µM on Cytochrome P450 2C9; 27 µM on Cytochrome P450 2D6; 25 µM on Cytochrome P450 3A4; 40 µM on Cytochrome P450 1A2; 7 µM on Cytochrome P450 2C19. Moreover, the EC20 in data set [3] was 3600 nM.
